The test concerns the target T1, KCNQ2/3 channels (Homo sapiens, UniProt O43525+O43526).
T1 construct: expressed in transfected cells; host or cells: CHO-K1 cells
Description: Fluorescence assay using a voltage-sensitive dye (fluorimetry). It is filed as cell-based. As to conditions: for EC50: CHO-K1 cells expressing KCNQ2/3 channels; for Emax at 1 µM: 50 μM retigabine = 100%, CHO-K1 cells expressing KCNQ2/3, read-out: Fluorimetry % efficacy at 1 μM (50 μM retigabine = 100%). As to the method: […] CHO-K1 cells expressing KCNQ2/3 channels are cultivated adherently at 37° C., 5% CO2 and 95% humidity in cell culture bottles (e.g. 80 cm^2 TC flasks, Nunc) with DMEM-high glucose (Sigma Aldrich, D7777) including 10% FCS (PAN Biotech, e.g. 3302-P270521) or alternatively MEM Alpha Medium (1×, liquid, Invitrogen, #22571), 10% foetal calf serum (FCS) (Invitrogen, #10270-106, heat-inactivated) and the necessary selection antibiotics.
Before being seeded out for the measurements, the cells are washed with a 1×DPBS buffer without Ca^2+/Mg^2+ (e.g. Invitrogen, #14190-094) and detached from the bottom of the culture vessel by means of Accutase (PAA Laboratories, #L11-007) (incubation with Accutase for 15 min at 37° C.). The cell count then present is determined using a CASY™ cell counter (TCC model, Scharfe System) in order subsequently to apply 20,000 to 30,000 cells/well/100 μl of the described nutrient medium, depending on density optimisation for the individual cell line, to 96-well measuring plates of the Corning™ CeIIBIND™ type (flat clear-bottom black polystyrene microplates, #3340). Incubation is then carried out for one hour at room temperature, without gassing or adjusting the humidity, followed by incubation for 24 hours at 37° C., 5% CO2 and 95% humidity.
The voltage-sensitive fluorescent dye from the Membrane Potential Assay Kit (Red™ bulk format part R8123 for FLIPR, MDS Analytical Technologies™) is prepared by dissolving the contents of a vessel of Membrane Potential Assay Kit Red Component A in 200 ml of extracellular buffer (ES buffer, 120 mM NaCl, 1 mM KCl, 10 mM HEPES, 2 mM CaCl2, 2 mM MgCl2, 10 mM glucose; pH 7.4). After removal of the nutrient medium, the cells are washed with 200 μl of ES buffer, then covered with a layer of 100 μl of the dye solution prepared above and incubated for 45 min at room temperature with exclusion of light.
The fluorescence measurements are carried out with a BMG Labtech FLUOstar™, BMG Labtech NOVOstar™ or BMG Labtech POLARstar™ instrument (525 nm excitation, 560 nm emission, bottom-read mode). After incubation of the dye, 50 μl of the substances to be tested in the desired concentrations, or 50 μl of ES buffer for control purposes, are introduced into separate cavities of the measuring plate and incubated for 30 min at room temperature whilst being shielded from light. The fluorescence intensity of the dye is then measured for 5 min and the fluorescence value F1 of each well is thus determined at a given, constant time. 15 μl of a […] KCl solution ([…]) are then added to each well. The change in fluorescence is subsequently measured until all relevant measured values have been obtained (mainly 5-30 min). At a given time after KCl application, a fluorescence value F2 is determined, in this case at the time of the fluorescence peak.
For calculation, the fluorescence intensity F2 is compared with the fluorescence intensity F1, and the agonistic activity of the target compound on the potassium channel is determined therefrom. F2 and F1 are calculated as follows: […]
is determined by adding to the reaction batch only the buffer solution instead of the substance to be tested, determining the value F1K of the fluorescence intensity, adding the potassium ions as described above and measuring a value F2K of the fluorescence intensity. Then F2K and F1K are calculated as follows: […]
Calculations of EC50 values are carried out with the aid of Prism v4.0 software (GraphPad Software™).

As to `O=C(NCc1cccs1)c1cc2ccccc2nc1SCCCC1CCCCC1` [compound 3], the concentration for a half-maximal effect (EC50) was found to be 1.93 µM and the Emax at 1 µM was found to be 77%.
In the case of `CCCCCSc1nc2cc(C(F)(F)F)ccc2cc1C(=O)NCc1cccs1` [compound 15], the EC50 was determined as 0.778 µM and the Emax at 1 µM was found to be 145%.
`CCSc1nc2cc(F)ccc2c(C)c1C(=O)NCc1cccc(F)c1` [compound 105]: a half-maximal response (EC50) required 0.248 µM and the Emax at 1 µM turned out to be 140%.
The matching figures for `O=C(NCc1cccs1)c1cc2ccccc2nc1SCCS(=O)(=O)c1ccc(F)cc1` [compound 16]: 0.078 µM and 164%.
As for `Cc1ccc(SCCSc2nc3ccccc3cc2C(=O)NCc2cccs2)cc1` [compound 18], the Emax at 1 µM was 72%.
As for `CCSc1nc2c(OC)cccc2c(C)c1C(=O)NCc1ccc(F)cc1` [compound 139], the response was half-maximal at 1.96 µM (EC50) and the Emax at 1 µM amounted to 91%.
Take `CCSc1nc2ccc(OC)cc2c(C)c1C(=O)NCc1ccc(F)cc1` [compound 102]: the Emax at 1 µM is 14%.
On to `CCSc1nc2ccc(C(F)(F)F)cc2c(C)c1C(=O)NCc1ccc(F)cc1` [compound 104], for which the Emax at 1 µM stood at 25%.
With `CCCCCSc1nc2ccccc2cc1C(=O)NCc1cccs1` [compound 1, 2-(Pentylthio)-N-(2-thienylmethyl)-3-quinoline carboxamide], the EC50 came out at 0.744 µM and the Emax at 1 µM was determined as 143%.
The like results for `CCSc1nc2cc(C(F)(F)F)ccc2c(C)c1C(=O)NCc1ccc(C(F)(F)F)cc1` [compound 55] were, in that order, 0.149 µM and 167%.
As for `CCSc1nc2cc(C(C)(C)C)ccc2c(C)c1C(=O)NCc1ccc(F)cc1` [compound 96], the EC50 turned out to be 0.808 µM and the Emax at 1 µM is 101%.
Regarding `CCSc1nc2cc(OC)ccc2c(C)c1C(=O)NCc1ccc(F)cc1` [compound 98], the EC50 was 0.404 µM and the Emax at 1 µM worked out at 70%.
Turning to `CCCCCSc1nc2ccc(C(F)(F)F)cc2cc1C(=O)NCc1cccs1` [compound 11, 2-(Pentylthio)-N-(2-thienylmethyl)-6-(trifluoromethyl)-3-quinoline carboxamide], the Emax at 1 µM turned out to be 41%.
`CCSc1nc2cc(C(F)(F)F)ccc2c(C)c1C(=O)NCCCC1CCCC1` [compound 54]: the EC50 came to 0.162 µM and the Emax at 1 µM was determined as 229%.
As to `CCCSc1nc2cc(C(F)(F)F)ccc2c(C)c1C(=O)NCc1cccc(F)c1` [compound 46], the EC50 turned out to be 0.141 µM and the Emax at 1 µM was 155%.
Regarding `CCSc1nc2ccc(OC)cc2c(C)c1C(=O)NCc1cccc(F)c1` [compound 101], the Emax at 1 µM was 17%.
Regarding `Cc1ccc(CCCSc2nc3ccccc3cc2C(=O)NCc2cccs2)cc1` [compound 20], the Emax at 1 µM was found to be 64%.
Take `CCSc1nc2cc(OC(F)(F)F)ccc2c(C)c1C(=O)NCc1ccc(F)cc1` [compound 132, 2-Ethylsulfanyl-N-[(4-fluorophenyl)-methyl]-4-methyl-7-(trifluoromethyloxy)-quinoline-3-carboxamide]: the EC50 came to 0.051 µM and the Emax at 1 µM stood at 161%.
In the case of `O=C(NCc1cccs1)c1cc2ccccc2nc1SCCCc1ccccc1` [compound 4], the midpoint of the response, the EC50, lay at 0.144 µM and the Emax at 1 µM worked out at 168%.
For `CCSc1nc2cc(C(F)(F)F)ccc2c(C)c1C(=O)NCc1ccc(Cl)s1` [compound 71], the 50% effective concentration (EC50) worked out at 0.305 µM and the Emax at 1 µM turned out to be 163%.
The like results for `CCSc1nc2ccc(C(F)(F)F)cc2cc1C(=O)NCc1cccs1` [compound 12] were, in that order, 0.412 µM and 155%.
Consider `O=C(NCc1cccs1)c1cc2ccccc2nc1SCCSc1ccccc1` [compound 21], for which the EC50 was 0.119 µM and the Emax at 1 µM stood at 30%.
The matching figures for `CCSc1nc2cc(C(F)(F)F)ccc2c(C)c1C(=O)NCCCC(C)C` [compound 57]: 0.15 µM and 205%.
The like results for `CSc1nc2cc(C(F)(F)F)ccc2c(C)c1C(=O)NCc1cccs1` [compound 88] were, in that order, 0.212 µM and 154%.
Take `CCSc1nc2cc(C(F)(F)F)ccc2c(C)c1C(=O)NCC(C)(C)C` [compound 28]: the Emax at 1 µM worked out at 47%.
In the case of `CCSc1nc2cc(N3CCOCC3)ccc2c(C)c1C(=O)NCc1cccc(F)c1` [compound 134], the Emax at 1 µM worked out at 21%.
Consider `CCSc1nc2ccccc2c(C)c1C(=O)NCc1cccs1` [compound 91], for which the EC50 is 1.21 µM and the Emax at 1 µM worked out at 50%.
In the case of `O=C(NCCC1CCCCC1)c1cc2ccccc2nc1SCCS(=O)(=O)c1ccccc1` [compound 22], the Emax at 1 µM came out at 15%.
As for `CCSc1nc2cc(C(F)(F)F)ccc2c(OC)c1C(=O)NCc1cccc(F)c1` [compound 130, 2-Ethylsulfanyl-N-[(3-fluorophenyl)-methyl]-4-methoxy-7-(trifluoromethyl)-quinoline-3-carboxamide], a half-maximal effect (EC50) was put at 0.058 µM and the Emax at 1 µM amounted to 180%.
On to `CCSc1nc2c(F)cccc2c(C)c1C(=O)NCc1cccc(F)c1` [compound 120], for which the EC50 turned out to be 1.21 µM and the Emax at 1 µM was found to be 157%.
For `CCSc1nc2cc(C(F)(F)F)ccc2c(C)c1C(=O)NCc1ccc(O)cc1` [compound 119], the EC50 stood at 2.75 µM and the Emax at 1 µM was 72%.
In the case of `CCSc1nc2cc(C(F)(F)F)ccc2c(C)c1C(=O)NCc1ccc(OC)cc1` [compound 86], a half-maximal response (EC50) required 0.565 µM and the Emax at 1 µM stood at 108%.
In the case of `CCSc1nc2c(F)cccc2c(C)c1C(=O)NCc1ccc(F)cc1` [compound 121], the concentration for a half-maximal effect (EC50) amounted to 0.334 µM and the Emax at 1 µM came out at 90%.
The matching figures for `CCSc1nc2c(O)cccc2c(C)c1C(=O)NCc1cccc(F)c1` [compound 140]: 1.15 µM and 101%.
As to `CCSc1nc2ccc(F)cc2c(C)c1C(=O)NCc1ccc(F)cc1` [compound 117], the EC50 came out at 0.222 µM and the Emax at 1 µM was 87%.
For `CCSc1nc2cc(N(C)C)ccc2c(C)c1C(=O)NCc1ccc(F)cc1` [compound 133], the Emax at 1 µM turned out to be 15%.
For `CCC(C)Sc1nc2cc(C(F)(F)F)ccc2c(C)c1C(=O)NCc1cccc(F)c1` (centres unmarked) [compound 51], the EC50 turned out to be 0.037 µM and the Emax at 1 µM is 158%.
The matching figures for `CCSc1nc2cc(C(F)(F)F)ccc2c(C)c1C(=O)NCc1ccc2ccccc2c1` [compound 43]: 0.159 µM and 77%.
On to `CCSc1nc2cc(C(F)(F)F)ccc2c(N(C)C)c1C(=O)NCc1cccc(F)c1` [compound 131, 4-Dimethylamino-2-ethylsulfanyl-N-[(3-fluorophenyl)-methyl]-7-(trifluoromethyl)-quinoline-3-carboxamide], for which the 50% effective concentration (EC50) is 1.82 µM and the Emax at 1 µM is 104%.
The like results for `Cc1c(C(=O)NCc2cccc(F)c2)c(SC(C)C)nc2cc(C(F)(F)F)ccc12` [compound 47] were, in that order, 0.073 µM and 152%.
Regarding `CCSc1nc2ccc(O)cc2c(C)c1C(=O)NCc1cccc(F)c1` [compound 128], the Emax at 1 µM came out at 39%.
For the compound `O=C(NCc1cccs1)c1cc2ccc(C(F)(F)F)cc2nc1SCCS(=O)(=O)c1ccccc1` [compound 9], the Emax at 1 µM came to 26%.
For `CSc1nc2cc(C(F)(F)F)ccc2c(C)c1C(=O)NCc1cccc(F)c1` [compound 114], the EC50 amounted to 0.169 µM and the Emax at 1 µM is 175%.

For the origin of these results see patent publication US20100234372A1, “SUBSTITUTED 2-MERCAPTOQUINOLINE-3-CARBOXAMIDES AS KCNQ2/3 MODULATORS” (GRUNENTHAL GMBH, priority 2009, published 2010).
